Counter-ions that a name gives are not always drawn.
These molecules were tested on Human platelet aggregation caused by ADP (assay: Inhibition of ADP-induced platelet aggregation (Mimic-human PRP)). Conditions: 20 μM ADP, human platelet concentrate diluted with PPP, absorption at 595 nm.
Assay type: cell-based
Summary of the method: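 Ki came from non-linear sigmoidal fits of inhibition, measured as the 3-min rise in absorbance at 595 nm after 20 μM ADP, relative to 0/20 μM ADP controls. Platelets (3–4×10^8/mL in PPP-diluted human PRP) were exposed to 0.01–30 μM compound for 20 min at room temperature beforehand.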

| SMILES | Ki [nM] |
| --- | --- |
| CCCc1cc2c(N3CCn4c(nnc4C(F)(F)F)C3)nc(N3CC[C@H](N(CCO)C(=O)OC)C3)nc2s1 [Example 9-94, (2-Hydroxy-ethyl)-{(S)-1-[6-propyl-4-(3-trifluoromethyl-5,6-dihydro-8H-[1,2,4]triazolo[4,3-a]pyrazin-7-yl)-thieno[2,3-d]pyrimidin-2-yl]-pyrrolidin-3-yl}-carbamic acid methyl ester] | 280 |
| CCCc1cc2c(N3CCn4c(nnc4C(F)(F)F)C3)nc(OCCNC(C)=O)nc2s1 [Example 7-29, N-{2-[6-Propyl-4-(3-trifluoromethyl-5,6-dihydro-8H-[1,2,4]triazolo[4,3-a]pyrazin-7-yl)-thieno[2,3-d]pyrimidin-2-yloxy]-ethyl}-acetamide] | 3.1 |
| CCCc1cc2c(N3CCn4c(nnc4C(F)(F)F)C3)nc(N3CCCC(C(=O)NC)C3)nc2s1 (centres unmarked) [Example 1-93, 1-[6-Propyl-4-(3-trifluoromethyl-5,6-dihydro-8H-[1,2,4]triazolo[4,3-a]pyrazin-7-yl)-thieno[2,3-d]pyrimidin-2-yl]-piperidine-3-carboxylic acid methylamide] | 204 |
| CCCc1cc2c(N3CCn4c(nnc4C(F)(F)F)C3)nc(N(C)CCNC=O)nc2s1 [Example 9-41, N-(2-{Methyl-[6-propyl-4-(3-trifluoromethyl-5,6-dihydro-8H-[1,2,4]triazolo[4,3-a]pyrazin-7-yl)-thieno[2,3-d]pyrimidin-2-yl]-amino}-ethyl)-formamide] | 37 |
| CCCc1cc2c(N3CCn4c(nnc4C(F)(F)F)C3)nc(N3CC(O)C(NC(C)=O)C3)nc2s1 (centres unmarked) [Example 7-17, N-{4-Hydroxy-1-[6-propyl-4-(3-trifluoromethyl-5,6-dihydro-8H-[1,2,4]triazolo[4,3-a]pyrazin-7-yl)-thieno[2,3-d]pyrimidin-2-yl]-pyrrolidin-3-yl}-acetamide] | 2.8 |
| CCCc1cc2c(N3CCn4c(nnc4C(F)(F)F)C3)nc(OCCCn3cccc3)nc2s1 [Example 9-92, 7-[6-Propyl-2-(3-pyrrol-1-yl-propoxy)-thieno[2,3-d]pyrimidin-4-yl]-3-trifluoromethyl-5,6,7,8-tetrahydro-[1,2,4]triazolo[4,3-a]pyrazine] | 1300 |
| CCCc1cc2c(N3CCn4c(nnc4C(F)(F)F)C3)nc(N3CC[C@H](CNC(C)=O)C3)nc2s1 [Example 8-4, N-{(R)-1-[6-Propyl-4-(3-trifluoromethyl-5,6-dihydro-8H-[1,2,4]triazolo[4,3-a]pyrazin-7-yl)-thieno[2,3-d]pyrimidin-2-yl]-pyrrolidin-3-ylmethyl}-acetamide] | 14 |
| CCCc1cc2c(N3CCn4c(nnc4C(F)(F)F)C3)nc(-n3cnc(CCN)c3)nc2s1 [Example 9-46, 2-{1-[6-Propyl-4-(3-trifluoromethyl-5,6-dihydro-8H-[1,2,4]triazolo[4,3-a]pyrazin-7-yl)-thieno[2,3-d]pyrimidin-2-yl]-1H-imidazol-4-yl}-ethylamine] | 530 |
| CCCc1cc2c(N3CCn4c(nnc4C(F)(F)F)C3)nc(N3CC[C@H](NC(=O)Cc4csc(N)n4)C3)nc2s1 [Example 1-119, 2-(2-Amino-thiazol-4-yl)-N-{(S)-1-[6-propyl-4-(3-trifluoromethyl-5,6-dihydro-8H-[1,2,4]triazolo[4,3-a]pyrazin-7-yl)-thieno[2,3-d]pyrimidin-2-yl]-pyrrolidin-3-yl}-acetamide] | 7.2 |
| CCCc1cc2c(N3CCn4c(nnc4C(F)(F)F)C3)nc(N3CC[C@H](N(C)C(C)=O)C3)nc2s1 [Example 9-24, N-Methyl-N-{(S)-1-[6-propyl-4-(3-trifluoromethyl-5,6-dihydro-8H-[1,2,4]triazolo[4,3-a]pyrazin-7-yl)-thieno[2,3-d]pyrimidin-2-yl]-pyrrolidin-3-yl}-acetamide] | 310 |
| CCCc1cc2c(N3CCn4c(nnc4C(F)(F)F)C3)nc(OCC(C)NC=O)nc2s1 (centres unmarked) [Example 9-75, N-{1-Methyl-2-[6-propyl-4-(3-trifluoromethyl-5,6-dihydro-8H-[1,2,4]triazolo[4,3-a]pyrazin-7-yl)-thieno[2,3-d]pyrimidin-2-yloxy]-ethyl}-formamide] | 3 |
| CCCc1cc2c(N3CCn4c(nnc4C(F)(F)F)C3)nc(NCCN)nc2s1 [Example 7-38, Hydrochloric acid salt of N-1-[6-Propyl-4-(3-trifluoromethyl-5,6-dihydro-8H-[1,2,4]triazolo[4,3-a]pyrazin-7-yl)-thieno[2,3-d]pyrimidin-2-yl]-ethane-1,2-diamine] | 50 |
| CCCc1cc2c(N3CCn4c(nnc4C(F)(F)F)C3)nc(N3CC[C@H](NC(=O)OC)C3)nc2s1 [Example 9-18, {(S)-1-[6-Propyl-4-(3-trifluoromethyl-5,6-dihydro-8H-[1,2,4]triazolo[4,3-a]pyrazin-7-yl)-thieno[2,3-d]pyrimidin-2-yl]-pyrrolidin-3-yl}-carbamic acid methyl ester] | 10 |
| CCCc1cc2c(N3CCn4c(nnc4C(F)(F)F)C3)nc(NCCNC(C)=O)nc2s1 [Example 8-7, N-{2-[6-Propyl-4-(3-trifluoromethyl-5,6-dihydro-8H-[1,2,4]triazolo[4,3-a]pyrazin-7-yl)-thieno[2,3-d]pyrimidin-2-ylamino]-ethyl}-acetamide] | 32 |
| CCCc1cc2c(N3CCn4c(nnc4C(F)(F)F)C3)nc(OC3CN(C(=O)C(C)C)C3)nc2s1 [Example 8-27, 2-Methyl-1-{3-[6-propyl-4-(3-trifluoromethyl-5,6-dihydro-8H-[1,2,4]triazolo[4,3-a]pyrazin-7-yl)-thieno[2,3-d]pyrimidin-2-yloxy]-azetidin-1-yl}-propan-1-one] | 260 |
| CCCc1cc2c(N3CCn4c(nnc4C(F)(F)F)C3)nc(OCCNC(N)=O)nc2s1 [Example 9-27, {2-[6-Propyl-4-(3-trifluoromethyl-5,6-dihydro-8H-[1,2,4]triazolo[4,3-a]pyrazin-7-yl)-thieno[2,3-d]pyrimidin-2-yloxy]-ethyl}-urea] | 6.5 |
| CCCc1cc2c(N3CCn4c(nnc4C(F)(F)F)C3)nc(N3CC[C@H](C(=O)N(C)C)C3)nc2s1 [Example 1-88, (S)-1-[6-Propyl-4-(3-trifluoromethyl-5,6-dihydro-8H-[1,2,4]triazolo[4,3-a]pyrazin-7-yl)-thieno[2,3-d]pyrimidin-2-yl]-pyrrolidine-3-carboxylic acid dimethylamide] | 16 |
| CCCc1cc2c(N3CCn4c(nnc4C(F)(F)F)C3)nc(N3CC(NC(C)=O)C(OC(C)=O)C3)nc2s1 (centres unmarked) [Example 7-18, Acetic acid 4-acetylamino-1-[6-propyl-4-(3-trifluoromethyl-5,6-dihydro-8H-[1,2,4]triazolo[4,3-a]pyrazin-7-yl)-thieno[2,3-d]pyrimidin-2-yl]-pyrrolidin-3-yl ester] | 6.5 |
| CCCc1cc2c(N3CCn4c(nnc4C(F)(F)F)C3)nc(OCCN3CCOC3=O)nc2s1 [Example 9-99, 3-{2-[6-Propyl-4-(3-trifluoromethyl-5,6-dihydro-8H-[1,2,4]triazolo[4,3-a]pyrazin-7-yl)-thieno[2,3-d]pyrimidin-2-yloxy]-ethyl}-oxazolidin-2-one] | 4 |
| CCCc1cc2c(N3CCn4c(nnc4C(F)(F)F)C3)nc(N3CC4N=C(C)OC4C3)nc2s1 (centres unmarked) [Example 9-30, 7-[2-(2-Methyl-3a,4,6,6a-tetrahydro-pyrrolo[3,4-d]oxazol-5-yl)-6-propyl-thieno[2,3-d]pyrimidin-4-yl]-3-trifluoromethyl-5,6,7,8-tetrahydro-[1,2,4]triazolo[4,3-a]pyrazine] | 0.3 |

Source: patent US20110166121A1 (LG LIFE SCIENCES LTD., priority 2008, published 2011)
